Test: isobaric coefficient of expansion
Conditions: Liquid, DSC

CCCCCCCCCCCCCCC [pentadecane]
isobaric coefficient of expansion
Conditions | 298.15 K | 308.15 K | 318.15 K | 328.15 K | 338.15 K | 348.15 K
5000 kPa | 0.000896 1/K | 0.000898 1/K | 0.000901 1/K | 0.000904 1/K | 0.000914 1/K | 0.000925 1/K
10000 kPa | 0.000871 1/K | 0.000873 1/K | 0.000873 1/K | 0.000873 1/K | 0.000883 1/K | 0.000886 1/K
15000 kPa | 0.000848 1/K | 0.000848 1/K | 0.00085 1/K | 0.000846 1/K | 0.000846 1/K | 0.000854 1/K
20000 kPa | 0.000825 1/K | 0.000824 1/K | 0.000824 1/K | 0.000823 1/K | 0.000821 1/K | 0.000826 1/K
25000 kPa | 0.000805 1/K | 0.000803 1/K | 0.000803 1/K | 0.000798 1/K | 0.000798 1/K | 0.000801 1/K
30000 kPa | 0.000793 1/K | 0.000786 1/K | 0.000786 1/K | 0.000781 1/K | 0.000782 1/K | 0.000783 1/K
35000 kPa | 0.000772 1/K | 0.000767 1/K | 0.000764 1/K | 0.000762 1/K | 0.00076 1/K | 0.000758 1/K
40000 kPa | 0.000756 1/K | 0.000751 1/K | 0.000746 1/K | 0.000744 1/K | 0.000738 1/K | 0.000737 1/K
45000 kPa | 0.000742 1/K | 0.000734 1/K | 0.000731 1/K | 0.000726 1/K | 0.000724 1/K | 0.00072 1/K
50000 kPa | 0.00073 1/K | 0.000721 1/K | 0.000718 1/K | 0.00071 1/K | 0.00071 1/K | 0.000705 1/K
55000 kPa | 0.000717 1/K | 0.000709 1/K | 0.000705 1/K | 0.000699 1/K | 0.000697 1/K | 0.000694 1/K

CCCCCCCCCCCC [dodecane]
isobaric coefficient of expansion
Conditions | 278.15 K | 288.15 K | 298.15 K | 308.15 K | 318.15 K | 328.15 K | 338.15 K | 348.15 K
5000 kPa | 0.000913 1/K | 0.000925 1/K | 0.00094 1/K | 0.000953 1/K | 0.000964 1/K | 0.000975 1/K | 0.000989 1/K | 0.000999 1/K
10000 kPa | 0.000896 1/K | 0.000902 1/K | 0.000916 1/K | 0.000924 1/K | 0.000932 1/K | 0.000941 1/K | 0.00095 1/K | 0.000958 1/K
15000 kPa | 0.000874 1/K | 0.000881 1/K | 0.000893 1/K | 0.000899 1/K | 0.000908 1/K | 0.000913 1/K | 0.000918 1/K | 0.000921 1/K
20000 kPa | 0.000854 1/K | 0.00086 1/K | 0.000869 1/K | 0.000874 1/K | 0.000876 1/K | 0.000884 1/K | 0.000888 1/K | 0.000891 1/K
25000 kPa | 0.000838 1/K | 0.000842 1/K | 0.000848 1/K | 0.00085 1/K | 0.000851 1/K | 0.000859 1/K | 0.000863 1/K | 0.000863 1/K
30000 kPa | 0.000821 1/K | 0.000826 1/K | 0.000827 1/K | 0.000831 1/K | 0.000831 1/K | 0.000835 1/K | 0.000838 1/K | 0.000837 1/K
35000 kPa | 0.000805 1/K | 0.000806 1/K | 0.000807 1/K | 0.00081 1/K | 0.000809 1/K | 0.000813 1/K | 0.000815 1/K | 0.000813 1/K
40000 kPa | 0.000786 1/K | 0.00079 1/K | 0.000788 1/K | 0.000792 1/K | 0.000787 1/K | 0.000791 1/K | 0.000788 1/K | 0.00079 1/K
45000 kPa | 0.000772 1/K | 0.000778 1/K | 0.000775 1/K | 0.000773 1/K | 0.000768 1/K | 0.000774 1/K | 0.000773 1/K | 0.00077 1/K
50000 kPa | 0.00076 1/K | 0.000761 1/K | 0.00076 1/K | 0.000755 1/K | 0.000754 1/K | 0.000757 1/K | 0.000754 1/K | 0.000753 1/K
55000 kPa | 0.000751 1/K | 0.000745 1/K | 0.000744 1/K | 0.000745 1/K | 0.000739 1/K | 0.000742 1/K | 0.00074 1/K | 0.000737 1/K

CCCCCCCCCC [decane]
isobaric coefficient of expansion
Conditions | 278.15 K | 288.15 K | 298.15 K | 308.15 K | 318.15 K | 328.15 K | 338.15 K | 348.15 K
5000 kPa | 0.000969 1/K | 0.000985 1/K | 0.001 1/K | 0.00102 1/K | 0.00103 1/K | 0.00105 1/K | 0.00107 1/K | 0.00108 1/K
10000 kPa | 0.000945 1/K | 0.000958 1/K | 0.000975 1/K | 0.000988 1/K | 0.001 1/K | 0.00101 1/K | 0.00103 1/K | 0.00103 1/K
15000 kPa | 0.000922 1/K | 0.000933 1/K | 0.000949 1/K | 0.000956 1/K | 0.00097 1/K | 0.000977 1/K | 0.000987 1/K | 0.000992 1/K
20000 kPa | 0.000899 1/K | 0.000907 1/K | 0.000918 1/K | 0.000928 1/K | 0.000935 1/K | 0.000942 1/K | 0.00095 1/K | 0.000956 1/K
25000 kPa | 0.000878 1/K | 0.000886 1/K | 0.000896 1/K | 0.000902 1/K | 0.000907 1/K | 0.000915 1/K | 0.000919 1/K | 0.000922 1/K
30000 kPa | 0.000859 1/K | 0.000868 1/K | 0.000871 1/K | 0.000878 1/K | 0.000883 1/K | 0.000885 1/K | 0.000891 1/K | 0.000893 1/K
35000 kPa | 0.000843 1/K | 0.000846 1/K | 0.000849 1/K | 0.000856 1/K | 0.000858 1/K | 0.000862 1/K | 0.000862 1/K | 0.000865 1/K
40000 kPa | 0.000817 1/K | 0.000823 1/K | 0.000829 1/K | 0.000834 1/K | 0.000833 1/K | 0.000833 1/K | 0.000836 1/K | 0.000835 1/K
45000 kPa | 0.000807 1/K | 0.000812 1/K | 0.000812 1/K | 0.000812 1/K | 0.000815 1/K | 0.000815 1/K | 0.000816 1/K | 0.000816 1/K
50000 kPa | 0.000793 1/K | 0.000797 1/K | 0.000794 1/K | 0.000796 1/K | 0.000802 1/K | 0.000797 1/K | 0.000796 1/K | 0.000795 1/K
55000 kPa | 0.000784 1/K | 0.00078 1/K | 0.00078 1/K | 0.000782 1/K | 0.000781 1/K | 0.000781 1/K | 0.000779 1/K | 0.000778 1/K
